Like-named read-outs stand apart in the source and are kept apart here.
Biological target: T1, F508delCFTR (Homo sapiens, UniProt P13569, DEL508-508)
T1 construct: expressed in transfected cells; host or cells: CFBE41o- (human lung derived epithelial cell line), doxycycline-inducible expression
Assay: Cell Surface Expression-Horse Radish Peroxidase (CSE-HRP) assay
Assay type: cell-based
Conditions: CFBE41o-F508delCFTR-HRP cells; for Maximum % activity (with co-corrector): with co-corrector (2 μM); for Maximum % activity (with co-corrector) / Maximum % activity (without co-corrector): normalized to on-plate positive control, highest concentration 20 μM
Protocol: Cell Surface Expression-Horse Radish Peroxidase (CSE-HRP) Assay
A cellular assay for measuring the F508delCFTR cell surface expression after correction with test compounds either without or with a co-corrector (2 μM of 3-[(2R,4R)-4-({[1-(2,2-difluoro-1,3-benzodioxol-5-yl)cyclopropyl]carbonyl}amino)-7-methoxy-3,4-dihydro-2H-chromen-2-yl]benzoic acid), was developed in human lung derived epithelial cell line (CFBE41o-) (Veit G et al, (2012) Mol Biol Cell. 23(21): 4188-4202). The development was achieved by expressing the F508delCFTR mutation along with a horseradish peroxidase (HRP) in the fourth exofacial loop, and then measuring the HRP activity using luminescence readout from these cells, CFBE41o-F508delCFTR-HRP, that were incubated overnight with the test corrector compounds, either without or with the co-corrector. For this primary assay, the CFBE41o-F508delCFTR-HRP cells were plated in 384-well plates (Greiner Bio-one; Cat 781080) at 4,000 cells/well along with 0.5 μg/mL doxycycline to induce the F508delCFTR-HRP expression and further incubated at 37° C., 5% CO2 for 72 hours. The test compounds were then added either without or with a co-corrector at the required concentrations and further incubated for 18-24 hours at 33° C. The highest concentration tested was 20 μM with an 8-point concentration response curve using a 3-fold dilution in both the test compound without or with the co-corrector. Three replicate plates were run to determine one EC50. All plates contained negative controls (dimethyl sulfoxide, DMSO) and positive control (2 μM of 3-[(2R,4R)-4-({[1-(2,2-difluoro-1,3-benzodioxol-5-yl)cyclopropyl]carbonyl}amino)-7-methoxy-3,4-dihydro-2H-chromen-2-yl]benzoic acid) as well as on-plate concentration response of the positive control. Post incubation, the plates were washed 5× times with Dulbecco's phosphate buffered saline (DPBS), followed by the addition of the HRP substrate, luminol (50 μL), and measuring the HRP activity using luminescence readout on EnVision® Multilabel Plate Reader (Perkin Elmer; product number 2104-0010). The raw counts from the experiment were analyzed using Accelrys® Assay Explorer v3.3.
Z′ greater than 0.5 was used as passing quality control criteria for the plates.
The Z′ is defined as: 1−[3*SDPositive Control+3*SDNegative Control/Absolute(MeanPositive Control−MeanNegative Control)] wherein “SD” is standard deviation.
The % activity measured at each of the 8 test concentrations of the test compound added either without or with a co-corrector (2 μM of 3-[(2R,4R)-4-({[1-(2,2-difluoro-1,3-benzodioxol-5-yl)cyclopropyl]carbonyl}amino)-7-methoxy-3,4-dihydro-2H-chromen-2-yl]benzoic acid) was normalized to the on-plate positive control using the following formulae: % activity(Test compound without co-corrector)=[(test compound without co-corrector response−DMSO response)/(positive control response−DMSO response)]*100 % activity(Test compound with co-corrector)=[(test compound with co-corrector response−DMSO response)/(positive control response−DMSO response)]*100
The maximum % activity achieved for the test compound either without or with a co-corrector at any tested concentration is presented in Table 1 along with the respective EC50's calculated using the following general sigmoidal curve with variable Hill slope equation (described as Model 42 in the Accelrys® Assay Explorer v3.3 software): y=(a−d)/(1+(x/c)^b)+d
General sigmoidal curve with concentration, response, top, bottom, EC50 and Hill slope. This model describes a sigmoidal curve with an adjustable baseline, a. The equation can be used to fit curves where response is either increasing or decreasing with respect to the independent variable, “x”. • “x” is a concentration of drug under test. • “y” is the response. • “a” is the maximum response, and “d” is the minimum response • “c” is the inflection point (EC50) for the curve. That is, “y” is halfway between the lower and upper asymptotes when x=c. “b” is the slope-factor or Hill coefficient. […]

[1] = test compound without co-corrector, 18-24 hours at 33° C., read-out: EC50 (without co-corrector)
[2] = with co-corrector (2 μM of 3-[(2R,4R)-4-({[1-(2,2-difluoro-1,3-benzodioxol-5-yl)cyclopropyl]carbonyl}amino)-7-methoxy-3,4-dihydro-2H-chromen-2-yl]benzoic acid), read-out: EC50 (with co-corrector)

T1 sequence (P13569 with tags, fused parts or gaps DEL508-508): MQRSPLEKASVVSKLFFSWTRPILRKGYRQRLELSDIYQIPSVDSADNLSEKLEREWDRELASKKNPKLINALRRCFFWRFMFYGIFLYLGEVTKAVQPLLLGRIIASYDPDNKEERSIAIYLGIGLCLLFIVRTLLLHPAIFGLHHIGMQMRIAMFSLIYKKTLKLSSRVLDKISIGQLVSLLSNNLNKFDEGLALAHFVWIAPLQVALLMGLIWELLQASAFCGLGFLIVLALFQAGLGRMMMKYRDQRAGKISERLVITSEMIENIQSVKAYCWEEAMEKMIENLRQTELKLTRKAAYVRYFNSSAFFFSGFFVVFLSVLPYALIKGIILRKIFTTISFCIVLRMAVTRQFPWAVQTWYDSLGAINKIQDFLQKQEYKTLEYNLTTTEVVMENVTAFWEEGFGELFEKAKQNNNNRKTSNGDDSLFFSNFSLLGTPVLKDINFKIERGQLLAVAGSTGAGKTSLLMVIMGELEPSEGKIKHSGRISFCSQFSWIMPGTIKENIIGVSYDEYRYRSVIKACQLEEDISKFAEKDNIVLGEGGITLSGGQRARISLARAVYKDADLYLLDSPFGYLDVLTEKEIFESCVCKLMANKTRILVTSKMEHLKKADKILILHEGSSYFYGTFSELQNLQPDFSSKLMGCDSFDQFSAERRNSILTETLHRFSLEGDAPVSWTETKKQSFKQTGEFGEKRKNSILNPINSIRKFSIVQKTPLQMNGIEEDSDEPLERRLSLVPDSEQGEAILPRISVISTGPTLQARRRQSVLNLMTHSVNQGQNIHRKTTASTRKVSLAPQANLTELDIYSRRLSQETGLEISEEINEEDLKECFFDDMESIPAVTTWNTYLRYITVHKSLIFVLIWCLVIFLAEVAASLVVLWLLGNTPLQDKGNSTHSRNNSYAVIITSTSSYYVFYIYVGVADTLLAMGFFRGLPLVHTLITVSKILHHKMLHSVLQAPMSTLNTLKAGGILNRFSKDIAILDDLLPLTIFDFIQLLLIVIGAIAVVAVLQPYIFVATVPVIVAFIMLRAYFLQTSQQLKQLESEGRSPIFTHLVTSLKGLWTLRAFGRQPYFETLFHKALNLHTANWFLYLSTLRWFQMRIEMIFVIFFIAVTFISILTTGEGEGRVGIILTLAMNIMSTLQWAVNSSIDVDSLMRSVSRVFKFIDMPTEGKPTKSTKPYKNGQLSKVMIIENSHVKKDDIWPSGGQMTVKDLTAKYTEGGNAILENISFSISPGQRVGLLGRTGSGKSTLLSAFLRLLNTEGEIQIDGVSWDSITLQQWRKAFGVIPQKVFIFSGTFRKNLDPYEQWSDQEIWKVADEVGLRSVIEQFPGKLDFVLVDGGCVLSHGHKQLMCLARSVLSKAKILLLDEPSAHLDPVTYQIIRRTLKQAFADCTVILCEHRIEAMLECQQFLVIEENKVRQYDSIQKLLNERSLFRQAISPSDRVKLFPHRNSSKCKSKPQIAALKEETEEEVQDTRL

| SMILES | EC50 [1] | EC50 [2] | Maximum % activity (with co-corrector) | Maximum % activity (without co-corrector) |
| --- | --- | --- | --- | --- |
| COc1ccc(C(F)(F)F)cc1CO[C@H]1[C@H](C(C)(C)C)[C@@H](C(=O)NS(=O)(=O)C2(C)CC2)N(C(=O)C2CCCCC2)[C@H]1c1ccccc1 [Example 22, (2S,3R,4S,5S)-3-tert-butyl-1-(cyclohexanecarbonyl)-4-{[2-methoxy-5-(trifluoromethyl)phenyl]methoxy}-N-(1-methylcyclopropane-1-sulfonyl)-5-phenylpyrrolidine-2-carboxamide] | > 10 µM | > 10 µM | + (<150) | + (<100) |
| COc1ccc(C(F)(F)F)cc1CO[C@H]1[C@H](C(C)(C)C)[C@@H](C(=O)NS(=O)(=O)C2CC2)N(C(=O)C2CCCCC2)[C@H]1c1ccccc1 [Example 23, (2S,3R,4S,5S)-3-tert-butyl-1-(cyclohexanecarbonyl)-N-(cyclopropanesulfonyl)-4-{[2-methoxy-5-(trifluoromethyl)phenyl]methoxy}-5-phenylpyrrolidine-2-carboxamide] | > 10 µM | 1 to 10 µM | ++ (≥150 and <350) | + (<100) |
| CCS(=O)(=O)NC(=O)[C@@H]1[C@@H](C(C)(C)C)[C@H](OCc2cc(C(F)(F)F)ccc2OC)[C@H](c2ccccc2)N1C(=O)C1CCCCC1 [Example 24, (2S,3R,4S,5S)-3-tert-butyl-1-(cyclohexanecarbonyl)-N-(ethanesulfonyl)-4-{[2-methoxy-5-(trifluoromethyl)phenyl]methoxy}-5-phenylpyrrolidine-2-carboxamide] | > 10 µM | 1 to 10 µM | ++ (≥150 and <350) | + (<100) |
| COc1ccc(C(F)(F)F)cc1CO[C@H]1[C@H](C(C)(C)C)[C@@H](C(=O)NS(=O)(=O)N(C)C)N(C(=O)C2CCCCC2)[C@H]1c1ccccc1 [Example 25, (2S,3R,4S,5S)-3-tert-butyl-1-(cyclohexanecarbonyl)-N-(dimethylsulfamoyl)-4-{[2-methoxy-5-(trifluoromethyl)phenyl]methoxy}-5-phenylpyrrolidine-2-carboxamide] | > 10 µM | 1 to 10 µM | ++ (≥150 and <350) | + (<100) |

Now from value to compound:

| EC50 [1] | EC50 [2] | Maximum % activity (with co-corrector) | Maximum % activity (without co-corrector) | SMILES |
| --- | --- | --- | --- | --- |
| 1 to 10 µM | 1 to 10 µM | ++ (≥150 and <350) | + (<100) | COc1ccc(C(F)(F)F)cc1CO[C@H]1[C@H](C(C)(C)C)[C@@H](C(=O)NS(C)(=O)=O)N(C(=O)C2CCCCC2)[C@H]1c1ccccc1 [Example 26, (2S,3R,4S,5S)-3-tert-butyl-1-(cyclohexanecarbonyl)-N-(methanesulfonyl)-4-{[2-methoxy-5-(trifluoromethyl)phenyl]methoxy}-5-phenylpyrrolidine-2-carboxamide] |
| 1 to 10 µM | < 1 µM | +++ (≥350) | ++ (≥100 and <200) | COc1ccc(C(F)(F)F)cc1CO[C@@H]1[C@@H](C(C)(C)C)[C@H](C(=O)O)N(C(=O)[C@H]2CCC[C@H](OC)C2)[C@@H]1c1ccccc1 [Example 27, (2R,3S,4R,5R)-3-tert-butyl-1-[(1S,3S)-3-methoxycyclohexane-1-carbonyl]-4-{[2-methoxy-5-(trifluoromethyl)phenyl]methoxy}-5-phenylpyrrolidine-2-carboxylic acid] |
| 1 to 10 µM | 1 to 10 µM | +++ (≥350) | ++ (≥100 and <200) | CO[C@H]1CCC[C@H](C(=O)N2[C@H](c3ccccc3)[C@H](Oc3cc(C(F)(F)F)cc(C)n3)[C@@H](C(C)(C)C)[C@@H]2C(=O)O)C1 [Example 28, (2R,3S,4R,5R)-3-tert-butyl-1-[(1S,3S)-3-methoxycyclohexane-1-carbonyl]-4-{[6-methyl-4-(trifluoromethyl)pyridin-2-yl]oxy}-5-phenylpyrrolidine-2-carboxylic acid] |
